Reference: PubChem BioAssay AID248 (DTP/NCI, 2004)
Several values for one entry are separate records, joined by “and”; a condition that tells them apart may be missing. Identical values can stand only once. Toxic doses and inconclusive results are not listed. Cut-off read from the data, not from the text of the source: active = T/C of 150% or more; inactive = T/C below 125%.

Tested on: L1210 leukemia ip in BDF1 mice, survival T/C
Assay: NCI In Vivo Anticancer Drug Screen. Data for tumor model L1210 Leukemia (intraperitoneal) in B6D2F1 (BDF1) mice
Settings: higher = longer survival
Summary of the method: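 Read-out is survival time, reported as the treated-group measurement over the vehicle-control measurement.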

[1] = endpoint: mean survival time, dose: 100.0 mg/kg/injection, schedule: Q04DX003 (ip), vehicle: Klucel (hydroxypropylcellulose) (HPC)
[2] = endpoint: mean survival time, dose: 200.0 mg/kg/injection, schedule: Q04DX003 (ip), vehicle: Klucel (hydroxypropylcellulose) (HPC)
[3] = endpoint: mean survival time, dose: 400.0 mg/kg/injection, schedule: Q04DX003 (ip), vehicle: Klucel (hydroxypropylcellulose) (HPC)
[4] = endpoint: mean survival time, dose: 25.0 mg/kg/injection, schedule: Q01DX009 (ip), vehicle: Klucel (hydroxypropylcellulose) (HPC)
[5] = endpoint: mean survival time, dose: 50.0 mg/kg/injection, schedule: Q01DX009 (ip), vehicle: Klucel (hydroxypropylcellulose) (HPC)
[6] = endpoint: mean survival time, dose: 100.0 mg/kg/injection, schedule: Q04DX002 (ip), vehicle: saline
[7] = endpoint: mean survival time, dose: 200.0 mg/kg/injection, schedule: Q04DX002 (ip), vehicle: saline
[8] = endpoint: mean survival time, dose: 100.0 mg/kg/injection, schedule: Q04DX002 (ip), vehicle: Klucel (hydroxypropylcellulose) (HPC)
[9] = endpoint: mean survival time, dose: 200.0 mg/kg/injection, schedule: Q04DX002 (ip), vehicle: Klucel (hydroxypropylcellulose) (HPC)
[10] = endpoint: mean survival time, dose: 100.0 mg/kg/injection, schedule: Q04DX003 (ip), vehicle: saline with Tween-80
[11] = endpoint: mean survival time, dose: 200.0 mg/kg/injection, schedule: Q04DX003 (ip), vehicle: saline with Tween-80
[12] = endpoint: mean survival time, dose: 400.0 mg/kg/injection, schedule: Q04DX003 (ip), vehicle: saline with Tween-80
[13] = endpoint: mean survival time, dose: 100.0 mg/kg/injection, schedule: Q01DX009 (ip), vehicle: saline with Tween-80
[14] = endpoint: mean survival time, dose: 200.0 mg/kg/injection, schedule: Q01DX009 (ip), vehicle: saline with Tween-80

Measured: T/C

CC(C)(C)N1CCOCC1
inactive: endpoint: mean survival time, dose: 25.0 mg/kg/injection, schedule: Q01DX009 (ip), vehicle: acetone 91 % of control | endpoint: mean survival time, dose: 50.0 mg/kg/injection, schedule: Q01DX009 (ip), vehicle: acetone 92 % of control | endpoint: mean survival time, dose: 100.0 mg/kg/injection, schedule: Q01DX009 (ip), vehicle: acetone 87 % of control

OC1CC23C=CC2(C1)C1(CC3)OCCO1 (stereo not given)
inactive: endpoint: mean survival time, dose: 50.0 mg/kg/injection, schedule: Q04DX002 (ip), vehicle: saline with Tween-80 92 % of control | endpoint: mean survival time, dose: 100.0 mg/kg/injection, schedule: Q04DX002 (ip), vehicle: saline with Tween-80 92 % of control | endpoint: mean survival time, dose: 200.0 mg/kg/injection, schedule: Q04DX002 (ip), vehicle: saline with Tween-80 95 % of control | endpoint: mean survival time, dose: 400.0 mg/kg/injection, schedule: Q04DX002 (ip), vehicle: saline with Tween-80 98 % of control

C[N+](C)(C)CCC[N+]1(C)CC2CC=CCC2C1 (stereo not given)
inactive: endpoint: mean survival time, dose: 100.0 mg/kg/injection, schedule: Q01DX Z (ip), vehicle: saline 97 % of control | endpoint: mean survival time, dose: 145.0 mg/kg/injection, schedule: Q01DX Z (ip), vehicle: saline 97 % of control | endpoint: mean survival time, dose: 220.0 mg/kg/injection, schedule: Q01DX Z (ip), vehicle: saline 87 % of control

N#CC1(C(=O)c2ccccc2)C=Cc2ccccc2N1C(=O)c1ccccc1 (stereo not given)
inactive: endpoint: mean survival time, dose: 100.0 mg/kg/injection, schedule: Q01DX001 (ip), vehicle: steriod suspending solution 87 % of control | endpoint: mean survival time, dose: 200.0 mg/kg/injection, schedule: Q01DX001 (ip), vehicle: steriod suspending solution 90 % of control | endpoint: mean survival time, dose: 400.0 mg/kg/injection, schedule: Q01DX001 (ip), vehicle: steriod suspending solution 92 % of control

CCCCCCCCCCCCCCCCC(Oc1ccc(Cl)cc1Cl)C(=O)O (stereo not given)
inactive: [1] 102 % of control | [2] 98 % of control | [3] 101 % of control

O=C(Nc1cc(C(F)(F)F)ccc1Cl)Oc1ccc(Cl)cc1Cc1ccccc1
inactive: [4] 93 % of control | [5] 88 % of control | endpoint: mean survival time, dose: 100.0 mg/kg/injection, schedule: Q01DX009 (ip), vehicle: Klucel (hydroxypropylcellulose) (HPC) 101 % of control and 86 % of control and 88 % of control

O=C(O)CSC(SCC(=O)O)c1ccc(Cl)cc1Cl
inactive: [6] 94 % of control | [7] 98 % of control | endpoint: mean survival time, dose: 400.0 mg/kg/injection, schedule: Q04DX002 (ip), vehicle: saline 119 % of control

O=[N+]([O-])c1ccc(N2N=NC3CC/C(=C\c4cccs4)C32N2CCOCC2)cc1 (stereo not given)
inactive: [8] 93 % of control | [9] 101 % of control | endpoint: mean survival time, dose: 400.0 mg/kg/injection, schedule: Q04DX002 (ip), vehicle: Klucel (hydroxypropylcellulose) (HPC) 90 % of control

N=C(N)CCc1ccccc1
inactive: endpoint: mean survival time, dose: 75.0 mg/kg/injection, schedule: Q04DX003 (ip), vehicle: saline 99 % of control | endpoint: mean survival time, dose: 150.0 mg/kg/injection, schedule: Q04DX003 (ip), vehicle: saline 98 % of control

CC[C@@H](c1ccc(O)cc1)[C@@H](CC)c1ccc(O)cc1
inactive: endpoint: mean survival time, dose: 25.0 mg/kg/injection, schedule: Q01DX009 (sc), vehicle: steriod suspending solution 100 % of control and 108 % of control | endpoint: mean survival time, dose: 25.0 mg/kg/injection, schedule: Q01DX010 (sc), vehicle: steriod suspending solution 101 % of control | endpoint: mean survival time, dose: 50.0 mg/kg/injection, schedule: Q01DX009 (sc), vehicle: steriod suspending solution 96 % of control and 100 % of control | endpoint: mean survival time, dose: 50.0 mg/kg/injection, schedule: Q01DX010 (sc), vehicle: steriod suspending solution 95 % of control | endpoint: mean survival time, dose: 100.0 mg/kg/injection, schedule: Q01DX009 (sc), vehicle: steriod suspending solution 96 % of control and 102 % of control | endpoint: mean survival time, dose: 100.0 mg/kg/injection, schedule: Q01DX010 (sc), vehicle: steriod suspending solution 98 % of control | endpoint: mean survival time, dose: 125.0 mg/kg/injection, schedule: Q01DX Z (ip), vehicle: carboxymethylcellulose (CMC) 91 % of control | endpoint: mean survival time, dose: 200.0 mg/kg/injection, schedule: Q01DX009 (sc), vehicle: steriod suspending solution 93 % of control and 99 % of control | endpoint: mean survival time, dose: 200.0 mg/kg/injection, schedule: Q01DX010 (sc), vehicle: steriod suspending solution 95 % of control | endpoint: median survival time, dose: 25.0 mg/kg/injection, schedule: Q01DX009 (sc), vehicle: steriod suspending solution 100 % of control | endpoint: median survival time, dose: 50.0 mg/kg/injection, schedule: Q01DX009 (sc), vehicle: steriod suspending solution 100 % of control and 111 % of control | endpoint: median survival time, dose: 100.0 mg/kg/injection, schedule: Q01DX009 (sc), vehicle: steriod suspending solution 100 % of control and 111 % of control | endpoint: median survival time, dose: 200.0 mg/kg/injection, schedule: Q01DX009 (sc), vehicle: steriod suspending solution 100 % of control

CC(C)CCc1c(N)nc(NCCCc2ccccc2)nc1N
inactive: endpoint: mean survival time, dose: 100.0 mg/kg/injection, schedule: Q01DX001 (ip), vehicle: Klucel (hydroxypropylcellulose) (HPC) 91 % of control | endpoint: mean survival time, dose: 200.0 mg/kg/injection, schedule: Q01DX001 (ip), vehicle: Klucel (hydroxypropylcellulose) (HPC) 103 % of control

O=Nc1c(O)ccc2ncccc12
inactive: endpoint: mean survival time, dose: 75.0 mg/kg/injection, schedule: Q01DX001 (ip), vehicle: other 104 % of control | endpoint: mean survival time, dose: 150.0 mg/kg/injection, schedule: Q01DX001 (ip), vehicle: other 104 % of control

NC(N)=NN=C(c1ccc([N+](=O)[O-])s1)c1ccc([N+](=O)[O-])s1
inactive: endpoint: mean survival time, dose: 15.0 mg/kg/injection, schedule: Q01DX Z (ip), vehicle: carboxymethylcellulose (CMC) 97 % of control | endpoint: mean survival time, dose: 30.0 mg/kg/injection, schedule: Q01DX Z (ip), vehicle: carboxymethylcellulose (CMC) 95 % of control | endpoint: mean survival time, dose: 60.0 mg/kg/injection, schedule: Q01DX Z (ip), vehicle: carboxymethylcellulose (CMC) 97 % of control and 105 % of control | endpoint: mean survival time, dose: 120.0 mg/kg/injection, schedule: Q01DX Z (ip), vehicle: carboxymethylcellulose (CMC) 94 % of control and 95 % of control | endpoint: mean survival time, dose: 240.0 mg/kg/injection, schedule: Q01DX Z (ip), vehicle: carboxymethylcellulose (CMC) 100 % of control | endpoint: mean survival time, dose: 480.0 mg/kg/injection, schedule: Q01DX Z (ip), vehicle: carboxymethylcellulose (CMC) 90 % of control

NC(=O)C(=Cc1ccc([N+](=O)[O-])s1)C(N)=O
inactive: [8] 107 % of control | [9] 112 % of control

CC1=C(Br)C(=O)NC1=O
inactive: [10] 107 % of control | [11] 101 % of control | [12] 107 % of control

O=C(Nc1nccs1)Nc1cccc(Cl)c1Cl
inactive: [4] 106 % of control | [5] 101 % of control

COc1ccc(C(=O)c2ccccc2)c(O)c1
inactive: [1] 101 % of control | [2] 97 % of control | [3] 90 % of control

CC(C)(C)OC(=O)CC(O)c1ccccc1 (stereo not given)
inactive: endpoint: mean survival time, dose: 50.0 mg/kg/injection, schedule: Q01DX001 (ip), vehicle: saline 94 % of control | endpoint: mean survival time, dose: 100.0 mg/kg/injection, schedule: Q01DX001 (ip), vehicle: saline 102 % of control | endpoint: mean survival time, dose: 200.0 mg/kg/injection, schedule: Q01DX001 (ip), vehicle: saline 105 % of control | endpoint: mean survival time, dose: 400.0 mg/kg/injection, schedule: Q01DX001 (ip), vehicle: saline 102 % of control

CC(C)(C)C(C)(O)C(=O)O (stereo not given)
inactive: endpoint: mean survival time, dose: 50.0 mg/kg/injection, schedule: Q01DX009 (ip), vehicle: saline with Tween-80 93 % of control | [13] 97 % of control | [14] 93 % of control

NCCCN1CCCN=C1C1=NCCCN1CCCN
inactive: [13] 96 % of control | [6] 100 % of control | [10] 109 % of control | [14] 100 % of control | [7] 100 % of control | [11] 98 % of control | endpoint: mean survival time, dose: 400.0 mg/kg/injection, schedule: Q01DX009 (ip), vehicle: saline with Tween-80 100 % of control | [12] 95 % of control
